Earlier results in patent US20220351806A1, “Biomarker Panels for Guiding Dysregulated Host Response Therapy” (Endpoint Health Inc., priority 2019, published 2022).

How the values were obtained:
[1] = tested on: shock events induced by endotoxin; conditions: rats, preventive administration, injected endotoxin; cited from earlier work
[2] = tested on: acid-induced lung injury; conditions: rats, cited from earlier work
[3] = tested on: septic animals; conditions: exogenous TFPI expressed in mammalian cells and/or Escherichia coli; cited from earlier work
[4] = tested on: oncologic and lymphopenic patients; conditions: over 390 oncologic and lymphopenic patients; cited from earlier work

For `CC1C(=O)OC2C(O)C34C5CC(C(C)(C)C)C36C(OC(=O)C6O)OC4(C(=O)O5)C12O` (stereo not drawn) [BN 52021], the “release of thromboxane and prostaglandin factor 1-α (PGF1-α)” value [1] is given as “reduced”.

In the case of `CCOC(=O)[C@H](Cc1ccccc1)NC(=O)c1cc(Cl)c(OCCN2CCN(C)CC2)c(Cl)c1O.Cl.Cl` [JTE 607], the “production of inflammatory cytokines (tumor necrosis factor-alpha, interleukin-6, cytokine-induced neutrophil chemoattractant)” value ([2]; acid-induced lung injury) is given as “inhibit the production” and the acid-induced lung injury [2] is given as “attenuate acid-”.

For tifacogin, the “outcome in septic animals” value [3] is listed as “coli improved”.

For CYT-107, the immunity [4] is listed as “counts, and improved” and the safety [4] is listed as “safe, invariably”.
